Reference: ChEMBL document CHEMBL6127026, “Design, synthesis and anti-HBV activity study of novel HBV capsid assembly modulators” (Bioorg Med Chem Lett, 2024)

How the values were obtained:
[1] = Cmax in male Beagle dog at 1.5 mg/kg, po administered via gavage and measured after 24 hrs by LC-MS/MS analysis; format: ADME, organism-based, Canis lupus familiaris; conditions: in vivo
[2] = AUC (0 to infinity) in male Beagle dog at 1.5 mg/kg, po administered via gavage and measured after 24 hrs by LC-MS/MS analysis; format: ADME, organism-based, Canis lupus familiaris; conditions: in vivo
[3] = test system: Hepatitis B virus; test: Antiviral activity against Hepatitis B virus infected in human HePAD38 cells assessed as inhibition of viral DNA replication by qPCR analysis; format: functional, organism-based
[4] = Cytotoxicity against human HePAD38 cells by CCK8 assay; format: toxicity, cell-based
[5] = Selectivity index, ratio of CC50 for human HePAD38 cells to EC50 for hepatitis B virus infected in HePAD38 cells; format: toxicity, cell-based; conditions: read-out: Ratio CC50/EC50
[6] = Octanol/water partition coefficient, log P of the compound; format: physicochemical
[7] = biological target: Core antigen (Hepatitis B virus, UniProt Q03732); test: Inhibition of Hepatitis B virus Capsid protein assembly activity by fluorescence based analysis
[8] = Metabolic stability in human liver microsomes assessed as half-life; format: ADME, Microsome
[9] = Metabolic stability in human liver microsomes assessed as parent compound remaining measured after 60 mins in presence of NADPH co-factor; format: ADME, Microsome; conditions: read-out: Stability
[10] = Metabolic stability in human liver microsomes assessed as parent compound remaining measured after 60 mins in absence of NADPH co-factor; format: ADME, Microsome; conditions: read-out: Stability
[11] = Metabolic stability in human liver microsomes assessed as intrinsic clearance; format: ADME, Microsome; conditions: read-out: CLH
[12] = Metabolic stability in human liver assessed as intrinsic clearance; format: ADME, tissue-based; conditions: read-out: CLH
[13] = Metabolic stability in human plasma assessed as half-life; format: ADME, cell-free
[14] = Metabolic stability in human plasma assessed as parent compound remaining measured immediately; format: ADME, cell-free; conditions: read-out: Stability
[15] = Metabolic stability in human plasma assessed as parent compound remaining measured after 10 mins; format: ADME, cell-free; conditions: read-out: Stability
[16] = Metabolic stability in human plasma assessed as parent compound remaining measured after 30 mins; format: ADME, cell-free; conditions: read-out: Stability
[17] = Metabolic stability in human plasma assessed as parent compound remaining measured after 60 mins; format: ADME, cell-free; conditions: read-out: Stability
[18] = Metabolic stability in human plasma assessed as parent compound remaining measured after 120 mins; format: ADME, cell-free; conditions: read-out: Stability

Sequence of Core antigen (Q03732 whole entry): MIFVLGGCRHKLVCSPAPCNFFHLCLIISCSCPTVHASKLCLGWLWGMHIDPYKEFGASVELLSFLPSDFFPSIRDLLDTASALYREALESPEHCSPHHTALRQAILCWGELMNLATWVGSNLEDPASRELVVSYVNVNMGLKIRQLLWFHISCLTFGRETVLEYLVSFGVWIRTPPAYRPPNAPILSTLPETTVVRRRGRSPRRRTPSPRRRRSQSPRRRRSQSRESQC

SMILES	EC50 [3]	CC50 [4]	selectivity ratio [5]	other results
O=C(c1cc(S(=O)(=O)NC2CCCC2)cc2c1OCCO2)N1CCC(O)CC1	> 20 µM	> 100 µM	–	–
O=C(Nc1cc(F)c(F)c(F)c1)c1cc(S(=O)(=O)NC2CCCC2)cc2c1OCCO2	0.24 µM	> 100 µM	> 419	IC50 [7]: 1.45 µM; logP ([6]; read-out: logP): 1.59; half-life [8]: 13.9 min; remaining at 1 h [9]: 5%; remaining at 1 h [10]: 84.1%; microsomal CLint [11]: 99.8 µL/min/mg; CLint scaled [12]: 89.8 mL/min/kg; half-life [13]: > 289 min; remaining at 0 min [14]: 100%; remaining at 10 min [15]: 115%; remaining at 0.5 h [16]: 112%; remaining at 1 h [17]: 115%; remaining at 2 h [18]: 99.4%
N#Cc1cc(NC(=O)c2cc(S(=O)(=O)NC3CCCC3)cc3c2OCCO3)ccc1F	1.53 µM	> 100 µM	> 65.3	–
O=C(NC1CCCC1)c1cc(S(=O)(=O)NC2CCCC2)cc2c1OCCO2	> 20 µM	> 100 µM	–	–
O=C(Nc1ccc(F)c(Cl)c1)c1cc(S(=O)(=O)NC2CCCC2)cc2c1OCCO2	0.5 µM	48.2 µM	95.5	IC50 [7]: 4.22 µM
O=C(Nc1ccc(F)c(Cl)c1)c1cc(S(=O)(=O)Nc2nccs2)cc2c1OCCO2	> 20 µM	> 100 µM	–	–
O=C(Nc1ccc(F)c(Cl)c1)c1cc2c(c(S(=O)(=O)Nc3ccc(F)c(Cl)c3)c1)OCCO2	4.56 µM	6.64 µM	1.46	–
O=C(NC1CCCC1)c1cc2c(c(S(=O)(=O)Nc3cc(F)c(F)c(F)c3)c1)OCCO2	7.36 µM	20.5 µM	2.79	–
O=C(NC1CCCC1)c1cc(S(=O)(=O)Nc2cc(F)c(F)c(F)c2)cc2c1OCCO2	> 20 µM	> 100 µM	–	–
O=C(NC1CCCC1)c1cc2c(c(S(=O)(=O)Nc3ccc(F)c(Cl)c3)c1)OCCO2	> 20 µM	> 100 µM	–	–
O=C(O)Cc1ccccc1Nc1c(Cl)cccc1Cl [DICLOFENAC]	–	–	–	CLint scaled [12]: 232 mL/min/kg
CC(C)[N+](C)(CCOC(=O)C1c2ccccc2Oc2ccccc21)C(C)C.[Br-] [PROPANTHELINE BROMIDE]	–	–	–	half-life [13]: 7.4 min; remaining at 10 min [15]: 52%; remaining at 0.5 h [16]: 8.3%; remaining at 1 h [17]: 0.4%

Further lines, with some results ahead:

EC50 [3]	SMILES	CC50 [4]	selectivity ratio [5]	other results
0.29 µM	O=C(Nc1cc(F)c(F)c(F)c1)c1ccc(F)c(S(=O)(=O)N2CCC(O)CC2)c1	20.8 µM	88.4	Cmax [1]: 560 ng/mL; AUC(0-inf) [2]: 3500 ng·h/mL; logP [6]: 1.75
0.43 µM	O=C(Nc1cc(F)cc(F)c1)c1cc(S(=O)(=O)NC2CCCC2)cc2c1OCCO2	> 100 µM	> 232	–
1 µM	O=C(Nc1ccc(F)cc1)c1cc(S(=O)(=O)NC2CCCC2)cc2c1OCCO2	> 100 µM	> 98.2	–
0.91 µM	O=C(Nc1ccc(F)c(F)c1)c1cc(S(=O)(=O)NC2CCCC2)cc2c1OCCO2	81.4 µM	89	–
0.49 µM	Cc1cc(NC(=O)c2cc(S(=O)(=O)NC3CCCC3)cc3c2OCCO3)ccc1F	51 µM	104	–
0.86 µM	O=C(Nc1ccc(F)c(Cl)c1)c1cc(S(=O)(=O)Nc2ccsc2)cc2c1OCCO2	> 100 µM	> 116	–
1.07 µM	O=C(NC1CCCC1)c1cc(S(=O)(=O)Nc2ccc(F)c(Cl)c2)cc2c1OCCO2	> 100 µM	> 93	–
